Literature values as cited in patent US20080260691A1 (priority 2004, published 2008).
Values belong to the compound of their own block, whether it stands above or below them.

How the values were obtained:
[1] = all animal species exposed
[2] = not given; remark: listed apart in the source
[3] = in vivo

Structure (SMILES): N[C@@H](CCC(=O)O)C(=O)O [Glu]
- in vitro hydrolysis t½ rat hepatic microsomes: 30 min

Structure (SMILES): NC(=O)c1ncn([C@@H]2O[C@H](CO)[C@@H](O)[C@H]2O)n1 [ribavirin]
- teratogenic and/or embryocidal effects [1]: Significant teratogenic and/or embryocidal effects
- total bioavailability, average ([2]; averages): 64%
- multiple-dose half-life ([2]; multiple-dose): 12 days
- portion of drug excreted in urine as intact drug or as metabolites ([2]; oral, within 72-80 hours): approx. 53%
- bioavailability (low and variable) ([2]; range): 33-69%
- portion of a single oral dose excreted in feces ([2]; single oral dose, within 72 hours): Approximately 15%

Structure (SMILES): NCCCC[C@H](N)C(=O)O [Lys]
- in vitro hydrolysis t½ rat hepatic microsomes: 14 min

Structure (SMILES): N[C@@H](Cc1ccc(O)cc1)C(=O)O [Tyr]
- in vitro hydrolysis t½ rat hepatic microsomes: 5 min

Second part, the compound after the results:

- in vitro hydrolysis t½ rat hepatic microsomes: 30 min
Structure (SMILES): N[C@@H](Cc1ccccc1)C(=O)O [Phe]

- bioavailability [3]: 15-30%
Structure (SMILES): Nc1nc2c(ncn2COCCO)c(=O)[nH]1 [acyclovir]

- bioavailability [3]: 54%
Structure (SMILES): CC(C)[C@H](N)C(=O)OCCOCn1cnc2c(=O)[nH]c(N)nc21 [valacyclovir]
